Experimental data from the supplement of paper PMC10307832.

Key:
Test in all cases: relative viability (nuclei count vs DMSO), 5 days (fraction); higher = more cells survive
[1] = compound: Cn1c(Nc2ccc(C(F)(F)F)cc2)nc2cc(Oc3ccnc(-c4ncc(C(F)(F)F)[nH]4)c3)ccc21 [RAF265] + Cc1cc(Nc2cc(N3CCN(C)CC3)nc(Sc3ccc(NC(=O)C4CC4)cc3)n2)n[nH]1 [Tozasertib] (partner 0.1 µM)
In short: (§1)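 Values are medians from duplicate plates. Each reflects relative viability, defined as the nuclei count of treated wells over that of vehicle wells. Lung cancer cell lines in 1536-well plates were pin-tool dosed one day after seeding with one drug alone or with a fixed anchor-drug dose plus five library-drug doses (not always all listed) in √10 steps, then fixed, stained and imaged at 4× after 5 days.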

[2] = compound: C1=CC=C2C(=C1)C=CC(=C2SSC3=C(C=CC4=CC=CC=C43)O)O [IPA-3] + COc1cc2c(Oc3ccc(NC(=O)C4(C(=O)Nc5ccc(F)cc5)CC4)cc3F)ccnc2cc1OCCCN1CCOCC1 [Foretinib] (partner 0.25 µM)
In short: as §1

[3] = compound: Cn1c(Nc2ccc(C(F)(F)F)cc2)nc2cc(Oc3ccnc(-c4ncc(C(F)(F)F)[nH]4)c3)ccc21 [RAF265] + C[C@]1(O)C[C@@H](c2nc(-c3ccc4ccc(-c5ccccc5)nc4c3)c3c(N)nccn32)C1 [Linsitinib] (partner 1 µM)
In short: as §1

[4] = compound: C1=CC=C2C(=C1)C=CC(=C2SSC3=C(C=CC4=CC=CC=C43)O)O [IPA-3] + C[C@]1(O)C[C@@H](c2nc(-c3ccc4ccc(-c5ccccc5)nc4c3)c3c(N)nccn32)C1 [Linsitinib] (partner 1 µM)
In short: as §1

NCI-H2347
relative viability ([1]; first compound 0.01 µM): 0.653 | relative viability ([1]; first compound 0.03162 µM): 0.507 | relative viability ([1]; first compound 0.1 µM): 0.809 | relative viability ([1]; first compound 0.3162 µM): 0.436 | relative viability ([1]; first compound 1 µM): 0.325 | relative viability ([2]; first compound 0.2 µM): 1.24 | relative viability ([2]; first compound 0.6325 µM): 0.916 | relative viability ([2]; first compound 2 µM): 0.908 | relative viability ([2]; first compound 6.325 µM): 0.902 | relative viability ([2]; first compound 20 µM): 0.899 | relative viability ([3]; first compound 0.01 µM): 1.2 | relative viability ([3]; first compound 0.03162 µM): 0.923 | relative viability ([3]; first compound 0.1 µM): 0.924 | relative viability ([3]; first compound 0.3162 µM): 0.744 | relative viability ([3]; first compound 1 µM): 0.544 | relative viability ([4]; first compound 0.2 µM): 1.02 | relative viability ([4]; first compound 0.6325 µM): 0.903 | relative viability ([4]; first compound 2 µM): 0.879 | relative viability ([4]; first compound 6.325 µM): 0.947 | relative viability ([4]; first compound 20 µM): 0.972

NCI-H2405
relative viability ([1]; first compound 0.01 µM): 0.798 | relative viability ([1]; first compound 0.03162 µM): 0.736 | relative viability ([1]; first compound 0.1 µM): 0.876 | relative viability ([1]; first compound 0.3162 µM): 0.853 | relative viability ([1]; first compound 1 µM): 0.458 | relative viability ([2]; first compound 0.2 µM): 1.12 | relative viability ([2]; first compound 0.6325 µM): 1.07 | relative viability ([2]; first compound 2 µM): 1.07 | relative viability ([2]; first compound 6.325 µM): 1.07 | relative viability ([2]; first compound 20 µM): 1.06 | relative viability ([3]; first compound 0.01 µM): 0.993 | relative viability ([3]; first compound 0.03162 µM): 0.884 | relative viability ([3]; first compound 0.1 µM): 1.03 | relative viability ([3]; first compound 0.3162 µM): 0.852 | relative viability ([3]; first compound 1 µM): 0.378 | relative viability ([4]; first compound 0.2 µM): 0.953 | relative viability ([4]; first compound 0.6325 µM): 0.923 | relative viability ([4]; first compound 2 µM): 0.936 | relative viability ([4]; first compound 6.325 µM): 0.912 | relative viability ([4]; first compound 20 µM): 1.03

NCI-H3122
relative viability ([1]; first compound 0.01 µM): 0.362 | relative viability ([1]; first compound 0.03162 µM): 0.492 | relative viability ([1]; first compound 0.1 µM): 0.424 | relative viability ([1]; first compound 1 µM): 0.283 | relative viability ([2]; first compound 0.2 µM): 1.01 | relative viability ([2]; first compound 0.6325 µM): 0.958 | relative viability ([2]; first compound 2 µM): 0.941 | relative viability ([2]; first compound 6.325 µM): 0.955 | relative viability ([2]; first compound 20 µM): 1.06 | relative viability ([3]; first compound 0.01 µM): 1.02 | relative viability ([3]; first compound 0.03162 µM): 1.2 | relative viability ([3]; first compound 0.1 µM): 0.947 | relative viability ([3]; first compound 0.3162 µM): 1.02 | relative viability ([3]; first compound 1 µM): 0.841 | relative viability ([4]; first compound 0.2 µM): 1.05 | relative viability ([4]; first compound 0.6325 µM): 1.01 | relative viability ([4]; first compound 2 µM): 0.961 | relative viability ([4]; first compound 6.325 µM): 1.08 | relative viability ([4]; first compound 20 µM): 1.05

PC-3 [JPC-3]
relative viability ([1]; first compound 0.01 µM): 0.889 | relative viability ([1]; first compound 0.03162 µM): 0.868 | relative viability ([1]; first compound 0.1 µM): 0.985 | relative viability ([1]; first compound 1 µM): 0.518 | relative viability ([2]; first compound 0.2 µM): 1.06 | relative viability ([2]; first compound 0.6325 µM): 0.975 | relative viability ([2]; first compound 2 µM): 1.04 | relative viability ([2]; first compound 6.325 µM): 0.965 | relative viability ([2]; first compound 20 µM): 1 | relative viability ([3]; first compound 0.01 µM): 1.03 | relative viability ([3]; first compound 0.03162 µM): 0.911 | relative viability ([3]; first compound 0.1 µM): 1.04 | relative viability ([3]; first compound 0.3162 µM): 0.416 | relative viability ([3]; first compound 1 µM): 0.722 | relative viability ([4]; first compound 0.2 µM): 0.965 | relative viability ([4]; first compound 0.6325 µM): 0.904 | relative viability ([4]; first compound 2 µM): 0.977 | relative viability ([4]; first compound 6.325 µM): 0.994 | relative viability ([4]; first compound 20 µM): 0.922

PC-14
relative viability ([1]; first compound 0.01 µM): 0.629 | relative viability ([1]; first compound 0.03162 µM): 0.555 | relative viability ([1]; first compound 0.1 µM): 0.655 | relative viability ([1]; first compound 1 µM): 0.542 | relative viability ([2]; first compound 0.2 µM): 1.07 | relative viability ([2]; first compound 0.6325 µM): 0.938 | relative viability ([2]; first compound 2 µM): 0.941 | relative viability ([2]; first compound 6.325 µM): 0.874 | relative viability ([2]; first compound 20 µM): 1.07 | relative viability ([3]; first compound 0.01 µM): 1.02 | relative viability ([3]; first compound 0.03162 µM): 0.968 | relative viability ([3]; first compound 0.1 µM): 1.02 | relative viability ([3]; first compound 1 µM): 0.788 | relative viability ([4]; first compound 0.2 µM): 0.945 | relative viability ([4]; first compound 0.6325 µM): 0.96 | relative viability ([4]; first compound 2 µM): 1.01 | relative viability ([4]; first compound 6.325 µM): 0.922 | relative viability ([4]; first compound 20 µM): 1.09

RERF-LC-KJ
relative viability ([1]; first compound 0.01 µM): 0.54 | relative viability ([1]; first compound 0.03162 µM): 0.482 | relative viability ([1]; first compound 0.1 µM): 0.507 | relative viability ([1]; first compound 0.3162 µM): 0.39 | relative viability ([1]; first compound 1 µM): 0.386 | relative viability ([2]; first compound 0.2 µM): 1.02 | relative viability ([2]; first compound 0.6325 µM): 0.913 | relative viability ([2]; first compound 2 µM): 0.868 | relative viability ([2]; first compound 6.325 µM): 0.847 | relative viability ([2]; first compound 20 µM): 1.04 | relative viability ([3]; first compound 0.01 µM): 0.915 | relative viability ([3]; first compound 0.03162 µM): 0.835 | relative viability ([3]; first compound 0.1 µM): 0.95 | relative viability ([3]; first compound 0.3162 µM): 0.859 | relative viability ([3]; first compound 1 µM): 0.636 | relative viability ([4]; first compound 0.2 µM): 0.965 | relative viability ([4]; first compound 0.6325 µM): 0.876 | relative viability ([4]; first compound 2 µM): 0.875 | relative viability ([4]; first compound 6.325 µM): 0.811 | relative viability ([4]; first compound 20 µM): 1.01

SK-LU-1
relative viability ([1]; first compound 0.01 µM): 0.333 | relative viability ([1]; first compound 0.03162 µM): 0.273 | relative viability ([1]; first compound 0.1 µM): 0.296 | relative viability ([1]; first compound 0.3162 µM): 0.278 | relative viability ([1]; first compound 1 µM): 0.204 | relative viability ([2]; first compound 0.2 µM): 1.01 | relative viability ([2]; first compound 0.6325 µM): 0.78 | relative viability ([2]; first compound 2 µM): 0.908 | relative viability ([2]; first compound 6.325 µM): 0.828 | relative viability ([2]; first compound 20 µM): 0.911 | relative viability ([3]; first compound 0.01 µM): 1.14 | relative viability ([3]; first compound 0.03162 µM): 0.7 | relative viability ([3]; first compound 0.1 µM): 0.687 | relative viability ([3]; first compound 0.3162 µM): 0.523 | relative viability ([3]; first compound 1 µM): 0.428 | relative viability ([4]; first compound 0.2 µM): 1.44 | relative viability ([4]; first compound 2 µM): 1.27 | relative viability ([4]; first compound 6.325 µM): 0.893 | relative viability ([4]; first compound 20 µM): 1.11

SK-MES-1
relative viability ([1]; first compound 0.01 µM): 0.853 | relative viability ([1]; first compound 0.03162 µM): 0.603 | relative viability ([1]; first compound 0.1 µM): 0.399 | relative viability ([1]; first compound 0.3162 µM): 0.348 | relative viability ([1]; first compound 1 µM): 0.275 | relative viability ([2]; first compound 0.2 µM): 0.982 | relative viability ([2]; first compound 0.6325 µM): 0.889 | relative viability ([2]; first compound 2 µM): 0.892 | relative viability ([2]; first compound 6.325 µM): 0.953 | relative viability ([2]; first compound 20 µM): 1.22 | relative viability ([3]; first compound 0.01 µM): 1.14 | relative viability ([3]; first compound 0.03162 µM): 0.926 | relative viability ([3]; first compound 0.1 µM): 0.947 | relative viability ([3]; first compound 0.3162 µM): 0.562 | relative viability ([3]; first compound 1 µM): 0.249 | relative viability ([4]; first compound 0.2 µM): 1.13 | relative viability ([4]; first compound 0.6325 µM): 1.01 | relative viability ([4]; first compound 2 µM): 1.07 | relative viability ([4]; first compound 6.325 µM): 1.07 | relative viability ([4]; first compound 20 µM): 1.02

SW 1573
relative viability ([1]; first compound 0.01 µM): 0.168 | relative viability ([1]; first compound 0.03162 µM): 0.24 | relative viability ([1]; first compound 0.1 µM): 0.171 | relative viability ([1]; first compound 0.3162 µM): 0.183 | relative viability ([1]; first compound 1 µM): 0.139 | relative viability ([2]; first compound 0.2 µM): 1.06 | relative viability ([2]; first compound 0.6325 µM): 0.83 | relative viability ([2]; first compound 2 µM): 0.806 | relative viability ([2]; first compound 6.325 µM): 0.808 | relative viability ([2]; first compound 20 µM): 0.893 | relative viability ([3]; first compound 0.01 µM): 0.767 | relative viability ([3]; first compound 0.03162 µM): 0.744 | relative viability ([3]; first compound 0.1 µM): 0.796 | relative viability ([3]; first compound 0.3162 µM): 0.612 | relative viability ([3]; first compound 1 µM): 0.508 | relative viability ([4]; first compound 0.2 µM): 1.07 | relative viability ([4]; first compound 0.6325 µM): 0.921 | relative viability ([4]; first compound 2 µM): 0.682 | relative viability ([4]; first compound 6.325 µM): 0.833 | relative viability ([4]; first compound 20 µM): 0.843
